Experimental data published in publication PMC7050258, “Inhibition of MGAT2 modulates fat‐induced gut peptide release and fat intake in normal mice and ameliorates obesity and diabetes in ob/ob mice fed on a high‐fat diet” (FEBS Open Bio, 2020).
Where “and” joins values, the source holds several entries; their conditions need not be identical. Equal entries are not always repeated.

Tests used:
[1] = molecular target: human MGAT2 (Homo sapiens, UniProt Q3SYC2); assay: in vitro inhibitory activity against MGAT2 (human); format: biochemical
Description: (§1) CpdB, CpdA, and pioglitazone were synthesized at Takeda Pharmaceutical Co., Ltd. (Tokyo, Japan). The in vitro inhibitory activities of CpdB and CpdA against MGAT2 and related acyltransferases (DGAT1, DGAT2, and ACAT1) were evaluated as described in our previous report 17 and patent application 19. Liraglutide (Victoza) was purchased from Novo Nordisk Pharma Ltd. (Bagsvaerd, Denmark). All other chemicals were of analytical grade and purchased from Wako Pure Chemicals (Osaka, Japan).

[2] = molecular target: T1, DGAT1 human (Homo sapiens, UniProt O75907); assay: in vitro inhibitory activity against DGAT1; format: biochemical
T1 sequence (O75907 1-488): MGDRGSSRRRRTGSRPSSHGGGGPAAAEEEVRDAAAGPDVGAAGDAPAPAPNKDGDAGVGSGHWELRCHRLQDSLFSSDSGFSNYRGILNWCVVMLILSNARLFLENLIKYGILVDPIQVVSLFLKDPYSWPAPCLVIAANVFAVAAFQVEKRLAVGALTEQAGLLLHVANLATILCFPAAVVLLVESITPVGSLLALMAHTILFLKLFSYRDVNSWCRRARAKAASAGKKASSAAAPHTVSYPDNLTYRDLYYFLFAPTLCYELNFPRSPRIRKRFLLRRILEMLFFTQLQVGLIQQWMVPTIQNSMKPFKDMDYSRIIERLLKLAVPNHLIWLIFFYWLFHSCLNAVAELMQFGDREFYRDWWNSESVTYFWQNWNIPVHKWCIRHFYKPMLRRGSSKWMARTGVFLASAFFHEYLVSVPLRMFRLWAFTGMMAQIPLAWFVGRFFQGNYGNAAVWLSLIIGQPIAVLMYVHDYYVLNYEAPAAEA
Description: as §1

[3] = Pharmacokinetics of CpdB in mice; format: in vivo; settings: C57BL/6J, mouse, plasma, 30 mg·kg^−1, 30 mg/kg single oral, mice fed an HFD, read-out: average plasma CpdB level 24 h after administration
Description: Fifty‐four‐week‐old C57BL/6J mice fed an HFD (45% kcal fat, 4.7 kcal·g^−1; D12451; Research Diets, Inc., New Brunswick, NJ, USA) were given a single oral administration of CpdB (30 mg·kg^−1). Blood samples were collected at 0.25, 0.5, 1, 2, 4, 8, and 24 h after the administration. Concentration of plasma CpdB in each sample was measured using liquid chromatography with tandem mass spectrometry as described in our previous report 18.

[4] = system: C57BL/6J mice; assay: Food choice test (HFD vs LFD); format: in vivo, mouse; settings: overnight, CpdB 10 mg/kg oral, liraglutide 0.04 mg/kg sc
Description: The choice between HFD (D12451; Research Diets, Inc.) and low‐fat diet (LFD, 10% kcal fat, 3.8 kcal·g^−1; D124510B; Research Diets, Inc.) was assessed in C57BL/6J mice. Following habituation to normal chow, HFD and LFD were presented in separate containers simultaneously, and overnight food intake of each diet was monitored. The mice were divided into groups based on the data of food intake and body weight. Then, vehicle or CpdB (10 mg·kg^−1) was orally administered, and the overnight food intake of each diet was monitored. CpdB was suspended in 0.5% methylcellulose. As a positive control, liraglutide (0.04 mg·kg^−1) dissolved in 10% DMSO/saline was subcutaneously administered.

[5] = system: HFD-fed ob/ob mice; assay: HFD-fed ob/ob mice study; format: in vivo, mouse
Description: Male ob/ob mice were fed an HFD (D12451; Research Diets, Inc.) from 8 weeks of age to the end of the study. After 2 weeks of HFD feeding, the mice were divided into groups based on their body weight, food intake, glycated hemoglobin (GHb), and plasma biochemical parameters. […] Compounds were suspended in 0.5% methylcellulose. Body weight and food intake were monitored during the study. On day 34, blood was collected and GHb and plasma biochemical parameters were measured. In addition, body composition was analyzed by EchoMRI‐900 (Hitachi Aloka Medical, Ltd., Tokyo, Japan). On day 36, the mice in the vehicle‐ and CpdB‐treated group were individually placed in the metabolic chamber of an Oxymax system (Columbus Instruments, Columbus, OH, USA). After 3 h of adaptation, oxygen consumption (VO2) and carbon dioxide production (VCO2) were analyzed for 22 h (from 13:00 to 11:00). During the measurement, dosing of vehicle or CpdB was performed at 18:00. Respiratory quotient (RQ) and energy expenditure (EE) were calculated with the following formulas: RQ=VCO2/VO2 EEkcal/h=3.815+1.232×VCO2/VO2×VO2
Blood samples were collected from the tail or facial vein without anesthesia and centrifuged at 1500 g for 10 min at 4 °C to isolate the plasma. To prevent degradation of incretin hormone, blood samples were treated with not only heparin/aprotinin but also a dipeptidyl peptidase‐4 (DPP‐4) inhibitor. Plasma alanine aminotransferase […] levels were measured by an Autoanalyzer 7180 (Hitachi High‐Technologies Corporation, Tokyo, Japan). GHb was measured with an automated GHb analyzer (HLC‐723G8; Tosoh, Tokyo, Japan). Plasma insulin was measured with an ELISA kit (Shibayagi Co., Ltd., Gunma, Japan). Plasma levels of total GLP‐1 and total PYY were also measured with an ELISA kit (Wako Pure Chemicals).

[6] = CpdB 30 mg/kg, pioglitazone 3 mg/kg oral once daily, mean
[7] = CpdB 30 mg/kg, pioglitazone 3 mg/kg oral once daily, single animal values
[8] = EchoMRI, day 34, CpdB 30 mg/kg, pioglitazone 3 mg/kg, mean
[9] = EchoMRI, day 34, CpdB 30 mg/kg, pioglitazone 3 mg/kg, single animal values
[10] = dark phase, day 36, CpdB 30 mg/kg, mean
[11] = dark phase, day 36, CpdB 30 mg/kg, single animal values
[12] = day 34, CpdB 30 mg/kg, pioglitazone 3 mg/kg oral once daily, mean ± SD, n=8
[13] = light phase, day 36, CpdB 30 mg/kg, mean
[14] = light phase, day 36, CpdB 30 mg/kg, single animal values

Chain of human MGAT2 (Q3SYC2 whole entry): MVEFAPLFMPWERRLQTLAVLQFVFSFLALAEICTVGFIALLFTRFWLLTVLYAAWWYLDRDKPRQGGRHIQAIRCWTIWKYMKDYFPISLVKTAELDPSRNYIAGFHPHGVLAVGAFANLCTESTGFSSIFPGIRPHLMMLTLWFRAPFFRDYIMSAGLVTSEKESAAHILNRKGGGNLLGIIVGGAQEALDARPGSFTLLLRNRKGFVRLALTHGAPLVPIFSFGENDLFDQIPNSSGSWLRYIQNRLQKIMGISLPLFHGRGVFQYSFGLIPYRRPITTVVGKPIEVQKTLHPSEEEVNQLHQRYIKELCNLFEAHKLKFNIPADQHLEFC

CC(C)(OC(=O)N[C@H]1CC[C@H](OC(=O)N2CCc3cc(S(=O)(=O)Nc4c(F)cc(Cl)cc4F)cc(N4CCCC4=O)c32)CC1)C(F)(F)F [CpdB]
selectivity against related acyltransferases (DGAT1, DGAT2, and ACAT1) ([1]; MGAT2 vs DGAT1, DGAT2, ACAT1): greater than 300 fold | IC50 ([1]; human MGAT2): 0.0081 µM | IC50 [2]: 2.5 µM | concentration at 24 h [3]: 580 nM | Food intake, energy intake of HFD, AVE ([4]; mean, N=5): 9.74 kcal | Food intake, energy intake of low-fat diet, AVE ([4]; mean, N=5): 0.16 kcal | Food intake, total energy intake, AVE ([4]; mean, N=5): 9.90 kcal | Food intake, energy intake of HFD, individual animal ([4]; single animal values): 9.96 kcal and 11.47 kcal and 8.41 kcal and 8.88 kcal | Food intake, energy intake of low-fat diet, individual animal ([4]; single animal values): 0.23 kcal and 0.00 kcal and 0.34 kcal | Food intake, total energy intake, individual animal ([4]; single animal values): 10.19 kcal and 11.47 kcal and 8.41 kcal and 9.23 kcal | Body weight change from initial, AVE [5, 6]: 16.96% | Cumulative food intake, AVE [5, 6]: 119.28 g | Body weight change from initial, individual animal [5, 7]: 14.99% and 19.62% and 18.91% and 14.63% and 13.72% and 24.18% and 12.96% and 16.65% | Cumulative food intake, individual animal [5, 7]: 119.82 g and 117.97 g and 119.56 g and 119.18 g and 110.06 g and 129.88 g and 111.80 g and 125.96 g | Body composition, Fat, AVE [5, 8]: 59.70% | Body composition, Lean, AVE [5, 8]: 40.30% | Body composition, Fat, individual animal [5, 9]: 63.06% and 55.96% and 61.22% and 59.99% and 59.40% and 60.55% and 59.10% and 58.29% | Body composition, Lean, individual animal [5, 9]: 38.78% and 40.01% and 40.60% and 39.45% and 40.90% and 41.71% and 36.94% and 44.04% | GHb, Pre ([5]; before dosing, mean ± SD, n=8): 5.9 ± 0.4% | Plasma ALT, Pre ([5]; before dosing, mean ± SD, n=8): 378 ± 76 U·L^−1 | Plasma AST, Pre ([5]; before dosing, mean ± SD, n=8): 333 ± 64 U·L^−1 | Plasma insulin, Pre ([5]; before dosing, mean ± SD, n=8): 106 ± 30 ng/mL | ΔGHb, AVE ([5]; change 34 days after repeated dosing, CpdB 30 mg/kg, pioglitazone 3 mg/kg oral once daily, mean): -0.45% | ΔGHb, individual animal ([5]; change 34 days after repeated dosing, CpdB 30 mg/kg, pioglitazone 3 mg/kg, single animal values): 0.60% and -0.50% and -0.20% and -1.10% and -0.60% | Average EE, Dark, AVE [5, 10]: 0.55 kcal/h | Average RQ, Dark, AVE [5, 10]: 0.87 | Average EE, Dark, individual animal [5, 11]: 0.61 kcal/h and 0.55 kcal/h and 0.54 kcal/h and 0.52 kcal/h and 0.53 kcal/h | Average RQ, Dark, individual animal [5, 11]: 0.88 and 0.87 and 0.85 and 0.86 | GHb, Post [5, 12]: 5.4 ± 0.6 % | Plasma ALT, Post [5, 12]: 632 ± 144 U·L^−1 | Plasma AST, Post [5, 12]: 492 ± 122 U·L^−1 | Plasma insulin, Post ([5]; day 34, CpdB 30 mg/kg, pioglitazone 3 mg/kg oral once daily, nonfasting, mean ± SD, n=8): 109 ± 40 ng/mL | Average EE, Light, AVE [5, 13]: 0.45 kcal/h | Average RQ, Light, AVE [5, 13]: 0.83 | Average EE, Light, individual animal [5, 14]: 0.46 kcal/h and 0.42 kcal/h and 0.43 kcal/h and 0.44 kcal/h and 0.49 kcal/h and 0.48 kcal/h | Average RQ, Light, individual animal [5, 14]: 0.82 and 0.83 and 0.84 and 0.80
